Measurements as given in paper PMC5701133, “Structural Mechanism of the Oxygenase JMJD6 Recognition by the Extraterminal (ET) Domain of BRD4” (Scientific Reports, 2017).

Tests used:
[1] = system: BRD4 and JMJD6 interaction; assay: Co-immunoprecipitation with added nucleic acid: BRD4/JMJD6 association; assay type: binding; settings: for association of Flag-BRD4WT with JMJD6 on addition of nucleic acid (in words): double-transfected Flag-BRD4 and His-JMJD6 HEK293T lysate, 1 μM ssRNA, dsDNA or ssDNA; for BRD4/JMJD6 association, endogenous and single-transfected IP, on addition of nucleic acid (in words): endogenous and single-transfected HEK293T IP experiments
Procedure: Incubate at 4 °C overnight.

JMJD6 = settings: biochemical study; ref [21]; cited from earlier work

Substance | association of Flag-BRD4WT with JMJD6 on addition of nucleic acid (in words) [1] | BRD4/JMJD6 association, endogenous and single-transfected IP, on addition of nucleic acid (in words) [1] | interaction with JMJD6 (in words) (JMJD6)
ssDNA: 5′-TTTCTAGATCAGGAGCTGTCGGAAGCTATCC-3′; 31 nt (DNA, backbone not given here) | no improvements on JMJD6 interaction with BRD4 | no additional effect | –
ssRNA: 5′-AUACGAUGCUUUACGGUGCUAUUUUGU-3′; 27 nt (RNA, backbone not given here) | appears much stronger | no additional effect | can interact
